# Reference: ChEMBL document CHEMBL1156829 (Proc Natl Acad Sci U S A, 2008)
# Several values for one entry are separate records, joined by “and”; a condition that tells them apart may be missing. Identical values can stand only once. Counter-ions that a name gives are not always drawn.
# Columns and labels:
# Huh-7 = experiment: (§1) NOVARTIS: Cytotoxicity against human hepatocellular carcinoma cell line (Huh7); type: toxicity, cell-based; details: huh-7, read-out: CC50
# Plasmodium falciparum [1] = experiment: NOVARTIS: Inhibition of Plasmodium falciparum 3D7 (drug-susceptible) proliferation in erythrocyte-based infection assay; type: functional, organism-based
# Plasmodium falciparum [2] = experiment: NOVARTIS: Inhibition of Plasmodium falciparum W2 (drug-resistant) proliferation in erythrocyte-based infection assay; type: functional, organism-based; details: read-out: EC50
# [3] = as §1; type: toxicity, cell-based, Huh-7; details: Huh7 cells (hepatocellular carcinoma cell line)
SMILES,CC50 (Huh-7),EC50 (Plasmodium falciparum [1]),"EC50 (Plasmodium falciparum [2]; Plasmodium falciparum, W2)",EC50 (Plasmodium falciparum [2]),"EC50 (Plasmodium falciparum [1]; Plasmodium falciparum, 3D7)",CC50 [3]
CCN1/C(=C/c2ccc3cc(OC)ccc3[n+]2CC)Sc2ccc(NC(C)=O)cc21,> 52000 nM,31.1 nM and 113 nM,82.6 nM,119 nM,–,–
CCN1/C(=C/c2cccc[n+]2C)Sc2ccc(OC)cc21,> 100000 nM,–,–,> 867 nM and 304 nM,207 nM,–
Cc1occc1C(=O)NN=C/C(Cl)=C/c1ccccc1,> 10000 nM and 64300 nM,291 nM,–,116 nM and 392 nM,255 nM,–
C/C(C=C1Sc2ccc3ccoc3c2N1CCO)=C\c1sc2ccc3occc3c2[n+]1CCO,> 100000 nM,6890 nM and 1540 nM,–,–,–,–
CCN1/C(=C/c2ccc3ccccc3[n+]2CC)C=Cc2ccccc21,> 10000 nM and 36800 nM,618 nM and 65.8 nM,–,544 nM and 189 nM,–,–
COc1ccc(/C=C2/SC(=Nc3ccccc3)NC2=O)c(OC)c1,> 100000 nM,660 nM,428 nM,250 nM,539 nM,–
CCn1c(C=CN(C(C)=O)c2ccccc2)[n+](CC)c2cc(Cl)ccc21,> 10000 nM,–,> 1060 nM,–,> 1650 nM,–
C=CC[n+]1c(C=C2C=CC=CN2C)sc2ccccc21,> 10000 nM,–,–,> 1010 nM,491 nM,–
CCN1C(=Cc2sc3ccccc3[n+]2C)C=Cc2cccc(C)c21 [listing 1 of 2 here],> 10000 nM,493 nM,–,800 nM,–,–
CCOc1ccc2nccc([C@@H](O)[C@@H]3C[C@@H]4CCN3C[C@@H]4CC)c2c1 [ETHYLHYDROCUPREINE],53800 nM,–,–,25.7 nM,31.8 nM,–
CCN(CC)C1SC=C(c2ccc([N+](=O)[O-])cc2)S1 (stereo not given),> 96000 nM,549 nM,–,911 nM and 390 nM,446 nM,–
O=C1NC(=Nc2ccccc2)/C(=C/c2ccc(O)cc2)S1,> 10000 nM and 21000 nM,810 nM,> 1090 nM,2160 nM,> 1250 nM,–
CCN1C(=Cc2ccc3ccccc3[n+]2CC)C=Cc2sc3ccccc3c21,2970 nM and 27800 nM,188 nM and 50.9 nM,–,44 nM and 148 nM,–,–
CCCCN1C(=Cc2cccc[n+]2C)Sc2cc(NC(C)=O)ccc21,> 100000 nM,2110 nM,–,3670 nM,–,–
CCN1/C(=C/c2cccc[n+]2C)Sc2ccc(C)cc21,> 100000 nM,487 nM and 1350 nM,–,545 nM and 2280 nM,–,–
CC[n+]1c(C=CN(C)C)sc2ccccc21 [listing 1 of 2 here],27100 nM,–,–,1360 nM,459 nM,–
CCN1C(=Cc2sc3ccc(OC)cc3[n+]2CC)C=Cc2ccccc21,24800 nM,20.4 nM,–,208 nM,–,–
CC[n+]1c(/C=C2\Sc3ccc(OC)cc3N2C)ccc2cc(C)ccc21,> 10000 nM and 21800 nM,–,–,331 nM and 52 nM,–,–
C=CCN1C(=O)/C(=C2/Sc3ccc(OC)cc3N2C)SC1=Nc1ccccc1-c1ccccc1,> 100000 nM,2120 nM,488 nM,838 nM,1180 nM,–
C[n+]1c(C=CNc2ccccc2)n(-c2ccccc2)c2ccc(Cl)cc21 [listing 1 of 2 here],> 10000 nM,182 nM,–,< 14.5 nM,–,–
CC[n+]1c(C=CN(C)C)sc2ccccc21 [listing 2 of 2 here],> 10000 nM,443 nM,–,462 nM,–,–
O=C1NC(=Nc2ccccc2)S/C1=C/c1ccc(F)c(Br)c1,> 100000 nM,> 12500 nM,–,1630 nM and > 94.2 nM,–,–
COc1cc(/C=C2/SC(=Nc3ccccc3)NC2=O)ccc1OCc1ccccc1F,> 100000 nM,> 1100 nM and 3670 nM,–,> 12500 nM,–,–

SMILES,CC50 (Huh-7),EC50 (Plasmodium falciparum [1]),"EC50 (Plasmodium falciparum [2]; Plasmodium falciparum, W2)",EC50 (Plasmodium falciparum [2]),"EC50 (Plasmodium falciparum [1]; Plasmodium falciparum, 3D7)",CC50 [3]
COc1ccc(/C=C2\SC(=O)NC2=Nc2ccccc2)cc1,> 100000 nM,–,–,1300 nM and 378 nM,819 nM,–
CN(C)c1ccc(C=CC=Cc2cc[n+](C)cc2)cc1,> 10000 nM,–,506 nM,–,640 nM,–
CC[n+]1c(C=CN(C)c2ccccc2)sc2ccc(OC)cc21,> 10000 nM,–,400 nM,–,920 nM,–
CC[n+]1c(C=CC=C2N(C)c3ccccc3C2(C)C)sc2ccccc21,> 10000 nM,–,520 nM,–,629 nM,–
O=C(Nc1ccc(-c2nc3cc(NC(=O)c4cccc([N+](=O)[O-])c4)ccc3[nH]2)cc1)c1cccc([N+](=O)[O-])c1,1670 nM and 667 nM,324 nM,–,635 nM and 246 nM,489 nM,–
O=C1NN(c2ccccc2)C(=O)/C1=C1/C(=O)N(Cc2cccc3ccccc23)c2ccccc21,> 100000 nM,> 541 nM and 5050 nM,–,> 1250 nM and 3260 nM,–,–
CC(C)c1ccc(/C=C2/SC(=Nc3ccccc3)NC2=O)cc1,> 100000 nM,1000 nM and 479 nM,1130 nM,1010 nM,–,–
CCN1C(=Cc2sc3cc(NC(C)=O)ccc3[n+]2CC)C=Cc2cc(C)ccc21,> 90600 nM,161 nM,–,581 nM,–,–
C[n+]1c(C=CNc2ccccc2)n(-c2ccccc2)c2ccc(Cl)cc21 [listing 2 of 2 here],23800 nM,534 nM,–,318 nM,–,–
CCOc1ccc2nccc([C@@H](O)[C@@H]3C[C@@H]4CCN3C[C@@H]4CC)c2c1 [ETHYLHYDROCUPREINE HYDROCHLORIDE],> 10000 nM,39 nM,–,< 3.48 nM,–,–
COc1ccc2c(c1)N(C)/C(=C/c1cccc[n+]1C)S2,> 100000 nM,941 nM and 219 nM,–,> 787 nM and 302 nM,–,–
Cc1cc(/C=C2\SC(=Nc3ccccc3)NC2=O)c(C)n1-c1ccccc1,> 99700 nM,–,–,12.8 nM and 86.2 nM,–,–
CN1/C(=C/c2cccc[n+]2C)C=Cc2ccccc21,> 100000 nM,557 nM,526 nM,779 nM,446 nM,–
CCN1/C(=C/c2cccc[n+]2C)C=Cc2ccccc21,> 64500 nM,401 nM,522 nM,572 nM,667 nM,–
CC1=C(C=CC(C)C=NNC(=O)c2ccncc2)C(C)(C)CCC1 (stereo not given),> 100000 nM,1420 nM,863 nM,1110 nM,896 nM,–
CC[n+]1c(/C=C2\Sc3ccc(C)cc3N2CCO)ccc2ccccc21,> 10000 nM and 29400 nM,–,–,–,–,–
CN1/C(=C/c2cccc[n+]2C)Sc2ccccc21,> 100000 nM,230 nM,223 nM,293 nM,138 nM,–
CCN1C(=Cc2sc3ccccc3[n+]2C)C=Cc2cccc(C)c21 [listing 2 of 2 here],27400 nM,65.4 nM,–,228 nM,–,–
CCN1/C(=C/c2ccc3ccccc3[n+]2CC)Sc2cc(NC(C)=O)ccc21,> 100000 nM,112 nM,–,70.8 nM,–,–
CCn1c(/C=C/N(C)c2ccccc2)[n+](CC)c2cc(Cl)ccc21,22600 nM and > 10000 nM,391 nM and 91.3 nM,–,513 nM and 87.8 nM,–,–
CC[n+]1c(/C=C2\Sc3ccccc3N2CCO)ccc2cc(C)ccc21,> 10000 nM and 56300 nM,–,> 248 nM,142 nM,–,–
Cc1cc(C)cc(-n2c(C)cc(/C=C3\SC(=Nc4ccc(Cl)cc4)NC3=O)c2C)c1,> 100000 nM,–,–,81.1 nM and 704 nM,–,–
CCN1C(=Cc2sc3ccccc3[n+]2CC)[Se]c2ccccc21,5340 nM and 11800 nM,156 nM,–,–,230 nM,–

SMILES,CC50 (Huh-7),EC50 (Plasmodium falciparum [1]),"EC50 (Plasmodium falciparum [2]; Plasmodium falciparum, W2)",EC50 (Plasmodium falciparum [2]),"EC50 (Plasmodium falciparum [1]; Plasmodium falciparum, 3D7)",CC50 [3]
CCOc1ccc(/C=C2/SC(=Nc3ccccc3)NC2=O)cc1OC,> 100000 nM,662 nM and 1530 nM,–,–,–,–
CC[n+]1c(/C=C2\Sc3cc(NC(C)=O)ccc3N2C)ccc2ccccc21,> 100000 nM,373 nM and 72.2 nM,–,–,–,–
Cn1cc(/C=C/c2cc[n+](C)cc2)c2ccccc21,7700 nM,216 nM,–,–,–,–
Cc1ccc(N=C2S/C(=C\c3c(Cl)cccc3Cl)C(=O)N2c2ccc(C)c(C)c2)cc1C,> 100000 nM,–,–,1340 nM and 4810 nM,–,–
CN(C)c1ccc(C=Cc2cccc[n+]2C)cc1,3030 nM and > 10000 nM,314 nM,–,–,248 nM,–
CCN1C(=O)c2ccccc2Sc2ccc(NC(=O)NCCCOC(C)C)cc21,–,–,> 10000 nM,–,> 10000 nM,32100 nM
COc1ccccc1C(c1c(C)n[nH]c1O)c1c(C)n[nH]c1O,–,–,> 1100 nM,–,> 1250 nM,> 10000 nM
Cc1cccc(CCNc2cc(C)nc3nc(C)nn23)c1,–,–,2290 nM,–,2420 nM,> 100000 nM
CC(C)CNc1nc(NCCCN)ncc1C(=O)NCCc1ccccc1,–,–,> 1250 nM,–,598 nM,> 10000 nM
CCOC(=O)C1=C(C)NC2=C(C(=O)CC(c3ccc(OC)c(OC)c3)C2)C1c1ccccc1Br (stereo not given),–,–,26.7 nM,–,73.2 nM,> 100000 nM
CC(=O)Nc1cccc(N(C(=O)C2COc3ccccc3O2)C(C(=O)NC2CCCCC2)c2ccc(O)cc2)c1 (stereo not given),–,–,> 1100 nM,–,> 1250 nM,> 10000 nM
CCCCCCCCCC[n+]1c(C)n(CC)c2cc(Cl)c(Cl)cc21,–,–,490 nM,–,613 nM,21000 nM
O=C(Nc1ccc(-c2nc3ccccc3[nH]2)cc1)c1ccc(-c2ccc(Cl)cc2)o1,–,–,444 nM,–,193 nM,16600 nM
CC1=CC(=O)OC[C@]23C[C@H](O)C(C)=C[C@H]2O[C@@H]2C[C@@H](OC(=O)C=CC=CC(=O)OCC1)[C@@]3(C)[C@]21CO1,–,2.44 nM,–,1.77 nM,–,83.7 nM
Cc1ccc2c(c1)N(C)/C(=C/c1cccc[n+]1C)S2,> 10000 nM and 22700 nM,825 nM,–,–,–,–
NCCCCCCNC(=S)Nc1ccccc1,–,–,> 859 nM,–,> 1410 nM,> 10000 nM
C=CC[n+]1cccc2c3ccccc3ccc21,–,–,1900 nM,–,1720 nM,> 100000 nM
COCCN1Cc2cccc(C(=O)Nc3ccc4c(c3)OCCO4)c2C1=O,–,–,1390 nM,–,> 1450 nM,> 10000 nM
CCCN(CCC)S(=O)(=O)c1cc(Br)cc2c1N(C(C)=O)CC2,–,–,561 nM,–,1990 nM,> 100000 nM
CC(C)NC(=O)c1cc(NC(=O)c2cccs2)ccc1N1CCc2ccccc2C1,–,–,479 nM,–,1260 nM,16300 nM
CCOC(=O)c1nnn(-c2nonc2N)c1-c1ccc(C)cc1,–,–,367 nM,–,304 nM,> 100000 nM
CCOC(=O)N1CCN(C(=O)C(NC(=O)C2CCC(C)CC2)C(C)C)CC1 (stereo not given),–,–,> 755 nM,–,> 1670 nM,> 10000 nM
Cc1cccc(OC(C)C(=O)N2CCc3ccccc32)c1 (stereo not given),–,–,1140 nM,–,3480 nM,> 100000 nM
